Source: publication PMC6992764 (Nature Communications, 2020)

Key:
[1] = test system: THP-1 cells; assay: Cell viability alongside chemotaxis assay; type: cell-based, human; conditions: at the concentrations tested in chemotaxis
[2] = test system: peritoneal macrophages; assay: CCL2-induced pseudopodia protrusion of macrophages; type: cell-based, mice; conditions: 25 µM, 1 h pre-incubation
Procedure: Peritoneal macrophages were isolated from mice, seeded in the 8-well glass-based dishes (Life Technologies) and incubated overnight at 37 °C to allow the cells to adhere. After serum starvation for 6 h, cells were stimulated with chemokine at a concentration of 100 ng mL^–1, then fixed with 4% paraformaldehyde (Wako) and permeabilized with 0.1% Triton X-100 (Wako) in PBS, followed by staining with phalloidin conjugated with Alexa Fluor 594 (Life Technologies). […] Tumor macrophages were isolated from collagenase digestion of tumor tissue as attached cells by washing non-adherent cells away and further culturing them in DMEM containing 10 nM M-CSF (BD Biosciences) and 10% serum. After co-culture with LLC tumor cells, confocal images were obtained using an SP5 confocal microscope (Leica Microsystems). Cells were classified as lamellipodial/round-shaped or filopodial based on their morphology and the ratio of each type in the visual field determined.

[3] = target: p53-MDM2 interaction (Homo sapiens, UniProt Q00987); assay: HTRF p53-MDM2 interaction counter assay; type: binding
Chain of p53-MDM2 interaction (Q00987 whole entry): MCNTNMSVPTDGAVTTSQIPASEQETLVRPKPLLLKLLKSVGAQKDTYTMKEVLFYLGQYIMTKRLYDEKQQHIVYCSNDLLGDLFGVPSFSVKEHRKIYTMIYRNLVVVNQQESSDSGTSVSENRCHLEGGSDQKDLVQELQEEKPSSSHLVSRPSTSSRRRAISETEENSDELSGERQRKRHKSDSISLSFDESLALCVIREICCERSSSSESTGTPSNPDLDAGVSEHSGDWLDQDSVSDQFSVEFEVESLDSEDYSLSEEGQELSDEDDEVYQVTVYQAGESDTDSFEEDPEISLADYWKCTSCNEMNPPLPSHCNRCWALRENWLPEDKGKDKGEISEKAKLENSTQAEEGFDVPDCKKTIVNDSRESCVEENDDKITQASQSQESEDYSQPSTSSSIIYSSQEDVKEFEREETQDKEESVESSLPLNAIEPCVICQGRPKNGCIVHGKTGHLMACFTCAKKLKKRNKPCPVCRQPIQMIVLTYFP

[4] = test system: THP-1 cells; assay: Chemotaxis assay using TAXIScan; type: cell-based, human; conditions: DSF 50 µM, towards CCL2
Procedure: The TAXIScan device (ECI, Tokyo, Japan) is an optically accessible horizontal chemotaxis apparatus consisting of an etched silicon substrate and a flat glass plate, which form two compartments separated by a 5-μm deep microchannel. THP-1 cells were applied through a hole connected to one of the compartments and aligned along the start line on the edge of the channel. Human CCL2 (10 ng mL^–1) was applied through a hole connected to the other compartment to form a concentration gradient in the channel. Time-lapse images were recorded every 30 s for 30 min and cell movement was analyzed using TAXIScan analyzer software (ECI, Tokyo, Japan).

[5] = test system: LLC tumor cells; assay: LLC tumor cell growth (WST-1 assay); type: cell-based; conditions: 48 h
[6] = test system: B16 melanoma; assay: B16 lung metastasis model; type: in vivo, C57BL/6 mice
Procedure: For evaluating subcutaneous tumor growth, LLC or B16 cells (5 × 10^5) in 50 μl PBS were inoculated subcutaneously into the right flanks of mice. Mice were euthanized when their tumor volumes reached 4000 mm^3. Tumor sizes were measured twice a week using calipers. Tumor volume was calculated using the following formula: Volume = (width)^2 × length/2. For the lung metastasis model, 1 × 10^6 LLC or B16 cells in 200 μl PBS were injected intravenously into mice. Mice were euthanized at day 10 after tumor injection for the LLC model and day 5–9 for the B16 model, and the lungs were isolated after perfusion with PBS via the left ventricle. Visible lung metastases were counted in the left lobe. The diameters of metastatic nodules in the lung lobe image were measured using ImageJ software. […] Anti-PD-1 antibody (clone J43, BioXcell) was injected intraperitoneally at a dose of 200 μg per mouse on day 5, 8, 14, and 18 after tumor inoculation. Mice were anesthetized and perfused with PBS and the left lungs were isolated. […] Fluorescence images derived from B16-DsRed cells and stained antibodies were obtained using an SP5 confocal microscope (Leica Microsystems). The F4/80 + macrophage number accumulated in and around the tumor nodule visualized by fluorescent protein was counted per nodule of similar sizes among the control and FROUNT-cKO, vehicle, or DSF-treated groups.

[7] = test system: Lewis lung carcinoma (LLC); assay: LLC lung metastasis model; type: in vivo, C57BL/6 mice; conditions: LLC i.v.; DSF 40 mg kg-1 i.p. daily
Procedure: For evaluating subcutaneous tumor growth, LLC or B16 cells (5 × 10^5) in 50 μl PBS were inoculated subcutaneously into the right flanks of mice. Mice were euthanized when their tumor volumes reached 4000 mm^3. Tumor sizes were measured twice a week using calipers. Tumor volume was calculated using the following formula: Volume = (width)^2 × length/2. For the lung metastasis model, 1 × 10^6 LLC or B16 cells in 200 μl PBS were injected intravenously into mice. Mice were euthanized at day 10 after tumor injection for the LLC model and day 5–9 for the B16 model, and the lungs were isolated after perfusion with PBS via the left ventricle. Visible lung metastases were counted in the left lobe. The diameters of metastatic nodules in the lung lobe image were measured using ImageJ software. […] Anti-PD-1 antibody (clone J43, BioXcell) was injected intraperitoneally at a dose of 200 μg per mouse on day 5, 8, 14, and 18 after tumor inoculation.

[8] = test system: MMTV-PyVT spontaneous mammary tumor; assay: MMTV-PyVT spontaneous mammary tumor model; type: in vivo, mice; conditions: treatment from age of 17 weeks
[9] = test system: PI3K activation in CCR2-expressing Chinese hamster ovary cells; assay: PH-Akt domain translocation assay; type: cell-based; conditions: 25 µM DSF for 30 min
Description: CCR2-expressing Chinese hamster ovary cells were transfected with PH-Akt-tHcRed. […] Cells were visualized with confocal microscopy using SP5 (Leica).

[10] = target: T1, C603S FROUNT (Homo sapiens, UniProt Q9BW27, C603S/L538E/P612S); assay: NMR titration of C603S FROUNT mutant; type: binding; conditions: 50 µM DSF, 50 µM mutant
T1 construct: 50 µM CRBD of FROUNT (a.a. 532–656) bearing the L538E/P612S mutations or its mutant (C603S); made in house
T1 sequence (Q9BW27 532-656 L538E/C603S/P612S): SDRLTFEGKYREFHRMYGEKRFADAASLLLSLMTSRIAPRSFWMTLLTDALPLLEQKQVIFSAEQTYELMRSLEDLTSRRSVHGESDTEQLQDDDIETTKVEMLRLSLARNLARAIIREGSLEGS
Procedure: All ^1H–^15N heteronuclear single quantum correlation (HSQC) NMR spectra were measured at 25 °C on a Bruker 600-MHz AVANCE III spectrometer with a cryogenic probe. […] The assignments of the backbone ^1H^N and ^15N NMR signals of CRBD were performed, based on the previous paper. […] Combined chemical shift differences Δδ was calculated by Δδ = [(ΔδHN)^2 + (ΔδN/6.5)^2]^1/2, where ΔδHN and ΔδN are the chemical shift differences for ^1H^N and ^15N, respectively.

[11] = test system: B16 tumor cells; assay: B16 tumor cell growth (WST-1 assay); type: cell-based; conditions: B16, 48 h

effect on p53-MDM2 interaction ([3]; HTRF): did not affect
IC50 ([3]; HTRF titration assay): > 1000 nM
binding to C603S FROUNT [10]: No significant binding
Structure (SMILES): CCN(CC)C(=S)SSC(=S)N(CC)CC [DSF, disulfiram]
cytotoxicity (cell viability) [1]: without any cytotoxicity
CCL2-induced pseudopodia protrusion [2]: inhibited
chemotaxis directionality [4]: impaired
chemotaxis velocity [4]: impaired
in vitro growth [5]: no effect
lung metastatic nodule formation ([6]; B16 i.v., DSF 40 mg kg-1 i.p. daily): significantly reduced
macrophage accumulation around tumor metastatic nodules ([6]; day 12 after B16 tumor cell injection, F4/80): diminished
lung metastatic nodule formation [7]: significantly reduced
growth of established tumors [8]: impaired
membrane localization of PH-Akt upon CCL2 stimulation [9]: significantly impaired
in vitro growth [11]: no effect
